Measurements: PubChem BioAssay (NCI)
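Abbreviation: GI50, concentration required for 50% inhibition of growth. TGI: total growth inhibition.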

Columns and labels:
Assay in all cases: NCI tumour cell line growth inhibition, 384-well format
786-0 renal = system: 786-0 renal
A549 NSCLC = system: A549 NSCLC
HCC-2998 colon = system: HCC-2998 colon
HOP-92 NSCLC = system: HOP-92 NSCLC
MDA-MB-231 breast = system: MDA-MB-231 breast
MDA-MB-435 melanoma = system: MDA-MB-435 melanoma
MDA-MB-468 breast = system: MDA-MB-468 breast
NCI-H322M lung = system: NCI-H322M lung
NCI-H460 NSCLC = system: NCI-H460 NSCLC
NCI-H522 lung = system: NCI-H522 lung
SF-539 CNS = system: SF-539 CNS
SR leukemia = system: SR leukemia
UACC-62 melanoma = system: UACC-62 melanoma

Structure (SMILES): FC(F)(F)c1ccc(CNc2ccc(Cc3c[nH]c4ncc(Cl)cc34)cn2)cn1
- GI50 (786-0 renal): 3.7 µM
- TGI (786-0 renal): 10.7 µM
- GI50 (A549 NSCLC): 13.1 µM
- TGI (A549 NSCLC): 26.2 µM
- GI50 (HCC-2998 colon): 13.8 µM
- TGI (HCC-2998 colon): 26.9 µM
- GI50 (HOP-92 NSCLC): 8.41 µM
- TGI (HOP-92 NSCLC): 21.3 µM
- GI50 (MDA-MB-231 breast): 13.7 µM
- TGI (MDA-MB-231 breast): 26.7 µM
- GI50 (MDA-MB-435 melanoma): 16.2 µM
- TGI (MDA-MB-435 melanoma): 30.1 µM
- GI50 (MDA-MB-468 breast): 2.82 µM
- TGI (MDA-MB-468 breast): 9.15 µM
- GI50 (NCI-H322M lung): 8.81 µM
- TGI (NCI-H322M lung): 21.6 µM
- GI50 (NCI-H460 NSCLC): 12.9 µM
- TGI (NCI-H460 NSCLC): 26.1 µM
- GI50 (NCI-H522 lung): 8.58 µM
- TGI (NCI-H522 lung): 21 µM
- GI50 (SF-539 CNS): 11.2 µM
- TGI (SF-539 CNS): 23.7 µM
- GI50 (SR leukemia): 2.13 µM
- TGI (SR leukemia): 5.5 µM
- GI50 (UACC-62 melanoma): 12.5 µM
- TGI (UACC-62 melanoma): 25.3 µM
